# According to ChEMBL document CHEMBL1201862, “PubChem BioAssay data set” (2004):
# The source made the active and inactive calls.
# Key:
# [1] = target: T1, Calpain-2 catalytic subunit (Sus scrofa, UniProt P43367); experiment: pig calpain II inhibitor potency, dose response, biochemical, fluorogenic peptide substrate (AID 1420); assay type: functional
# T1 sequence (P43367 whole entry): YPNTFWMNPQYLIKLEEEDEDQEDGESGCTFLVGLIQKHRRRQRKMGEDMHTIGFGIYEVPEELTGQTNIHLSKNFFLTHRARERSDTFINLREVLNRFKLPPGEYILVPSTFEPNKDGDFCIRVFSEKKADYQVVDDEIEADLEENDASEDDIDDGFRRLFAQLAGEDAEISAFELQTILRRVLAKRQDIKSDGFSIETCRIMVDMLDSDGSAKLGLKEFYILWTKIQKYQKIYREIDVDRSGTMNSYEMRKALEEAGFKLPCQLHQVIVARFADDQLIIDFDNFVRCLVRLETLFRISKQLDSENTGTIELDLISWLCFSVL
# [2] = target: Voltage-dependent T-type calcium channel subunit alpha-1H (Homo sapiens, UniProt O95180); assay type: functional;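 further: channel activity triggered by adding a high calcium stimulation buffer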
# Chain of Voltage-dependent T-type calcium channel subunit alpha-1H (O95180 whole entry): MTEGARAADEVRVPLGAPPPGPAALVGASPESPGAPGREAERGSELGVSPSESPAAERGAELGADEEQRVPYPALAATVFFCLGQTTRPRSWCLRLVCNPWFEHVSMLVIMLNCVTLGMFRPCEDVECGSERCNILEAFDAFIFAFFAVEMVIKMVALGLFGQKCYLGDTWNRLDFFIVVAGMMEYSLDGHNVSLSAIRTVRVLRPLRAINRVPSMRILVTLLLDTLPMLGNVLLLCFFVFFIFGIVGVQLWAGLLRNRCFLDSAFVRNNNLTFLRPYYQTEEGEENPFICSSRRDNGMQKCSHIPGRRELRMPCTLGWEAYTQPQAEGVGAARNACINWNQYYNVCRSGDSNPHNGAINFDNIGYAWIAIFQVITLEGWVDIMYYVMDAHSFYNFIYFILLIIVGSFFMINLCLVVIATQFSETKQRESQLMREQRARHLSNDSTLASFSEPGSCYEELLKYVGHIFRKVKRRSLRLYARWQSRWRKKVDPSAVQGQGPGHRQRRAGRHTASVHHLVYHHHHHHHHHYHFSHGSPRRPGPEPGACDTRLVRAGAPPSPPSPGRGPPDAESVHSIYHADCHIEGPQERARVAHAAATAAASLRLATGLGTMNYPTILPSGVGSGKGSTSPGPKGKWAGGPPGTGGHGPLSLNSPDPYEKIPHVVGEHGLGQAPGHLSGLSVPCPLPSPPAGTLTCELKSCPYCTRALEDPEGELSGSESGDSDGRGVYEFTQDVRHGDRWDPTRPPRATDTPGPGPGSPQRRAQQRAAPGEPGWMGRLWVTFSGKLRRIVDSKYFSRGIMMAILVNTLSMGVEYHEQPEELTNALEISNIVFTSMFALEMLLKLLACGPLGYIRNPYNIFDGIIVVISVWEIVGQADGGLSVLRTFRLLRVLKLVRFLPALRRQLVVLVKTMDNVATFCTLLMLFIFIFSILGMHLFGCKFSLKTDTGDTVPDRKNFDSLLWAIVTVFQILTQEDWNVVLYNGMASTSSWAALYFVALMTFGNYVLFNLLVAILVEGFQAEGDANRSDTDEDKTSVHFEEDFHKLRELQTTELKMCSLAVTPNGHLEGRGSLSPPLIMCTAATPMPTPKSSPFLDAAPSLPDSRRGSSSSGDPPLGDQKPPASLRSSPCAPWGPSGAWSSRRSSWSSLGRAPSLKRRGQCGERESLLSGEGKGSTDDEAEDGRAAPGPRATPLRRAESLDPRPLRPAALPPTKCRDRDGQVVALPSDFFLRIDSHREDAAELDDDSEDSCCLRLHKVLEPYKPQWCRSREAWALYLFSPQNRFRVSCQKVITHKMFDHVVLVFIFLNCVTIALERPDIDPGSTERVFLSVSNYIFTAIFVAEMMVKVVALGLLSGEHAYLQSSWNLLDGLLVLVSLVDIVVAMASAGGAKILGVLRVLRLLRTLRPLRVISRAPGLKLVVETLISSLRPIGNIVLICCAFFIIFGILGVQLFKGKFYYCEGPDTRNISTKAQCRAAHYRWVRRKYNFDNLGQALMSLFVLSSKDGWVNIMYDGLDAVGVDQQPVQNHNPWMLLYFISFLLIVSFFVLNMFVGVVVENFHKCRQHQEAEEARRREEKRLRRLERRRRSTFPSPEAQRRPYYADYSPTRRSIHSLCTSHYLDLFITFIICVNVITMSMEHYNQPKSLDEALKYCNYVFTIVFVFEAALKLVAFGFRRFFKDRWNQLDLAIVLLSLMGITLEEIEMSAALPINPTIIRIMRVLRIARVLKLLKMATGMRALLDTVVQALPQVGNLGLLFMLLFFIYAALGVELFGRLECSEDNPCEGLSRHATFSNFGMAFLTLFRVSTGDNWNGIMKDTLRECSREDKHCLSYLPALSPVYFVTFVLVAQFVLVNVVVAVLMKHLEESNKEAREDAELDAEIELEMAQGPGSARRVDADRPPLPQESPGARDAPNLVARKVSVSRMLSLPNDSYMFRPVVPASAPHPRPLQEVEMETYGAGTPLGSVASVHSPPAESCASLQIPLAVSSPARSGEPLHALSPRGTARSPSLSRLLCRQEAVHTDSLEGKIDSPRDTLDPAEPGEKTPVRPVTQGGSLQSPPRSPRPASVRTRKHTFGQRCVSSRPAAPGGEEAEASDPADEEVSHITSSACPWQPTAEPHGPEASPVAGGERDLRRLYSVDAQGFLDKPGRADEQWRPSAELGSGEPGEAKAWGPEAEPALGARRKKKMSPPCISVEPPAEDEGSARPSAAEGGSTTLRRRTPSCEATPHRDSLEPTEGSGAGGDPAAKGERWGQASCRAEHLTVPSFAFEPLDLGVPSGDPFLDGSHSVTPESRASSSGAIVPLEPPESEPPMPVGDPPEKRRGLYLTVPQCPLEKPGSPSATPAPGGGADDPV
# Cytochrome P450 3A4 = Cytochrome P450 3A4 (Homo sapiens, UniProt P08684); conditions: Potency;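 further: confirmatory qHTS run detecting inhibitors and substrates of CYP3A4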
# Chain of Cytochrome P450 3A4 (P08684 whole entry): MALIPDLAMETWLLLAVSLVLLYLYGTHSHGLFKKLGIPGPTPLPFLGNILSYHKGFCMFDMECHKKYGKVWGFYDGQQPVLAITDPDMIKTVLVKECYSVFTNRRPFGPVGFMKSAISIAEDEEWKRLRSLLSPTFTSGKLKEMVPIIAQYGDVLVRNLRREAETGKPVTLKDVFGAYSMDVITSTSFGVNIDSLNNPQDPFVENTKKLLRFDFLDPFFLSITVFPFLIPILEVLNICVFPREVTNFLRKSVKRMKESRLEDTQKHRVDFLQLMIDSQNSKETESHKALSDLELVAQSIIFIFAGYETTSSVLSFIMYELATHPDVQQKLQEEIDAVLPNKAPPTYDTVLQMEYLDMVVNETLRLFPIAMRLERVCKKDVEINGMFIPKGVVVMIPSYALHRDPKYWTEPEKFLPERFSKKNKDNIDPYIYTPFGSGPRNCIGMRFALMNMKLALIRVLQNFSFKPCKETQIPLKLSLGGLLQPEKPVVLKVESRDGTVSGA
# Prothrombin = Prothrombin (Homo sapiens, UniProt P00734); experiment: Thrombin 1536 HTS Dose Response Confirmation. [Related pubchem assays: 1046 (Thrombin 1536 HTS; hits were confirmed in this assay)]; assay type: functional
# Protein skinhead-1 = target: T2, Protein skinhead-1 (Caenorhabditis elegans, UniProt P34707); assay type: functional
# T2 sequence (P34707 whole entry): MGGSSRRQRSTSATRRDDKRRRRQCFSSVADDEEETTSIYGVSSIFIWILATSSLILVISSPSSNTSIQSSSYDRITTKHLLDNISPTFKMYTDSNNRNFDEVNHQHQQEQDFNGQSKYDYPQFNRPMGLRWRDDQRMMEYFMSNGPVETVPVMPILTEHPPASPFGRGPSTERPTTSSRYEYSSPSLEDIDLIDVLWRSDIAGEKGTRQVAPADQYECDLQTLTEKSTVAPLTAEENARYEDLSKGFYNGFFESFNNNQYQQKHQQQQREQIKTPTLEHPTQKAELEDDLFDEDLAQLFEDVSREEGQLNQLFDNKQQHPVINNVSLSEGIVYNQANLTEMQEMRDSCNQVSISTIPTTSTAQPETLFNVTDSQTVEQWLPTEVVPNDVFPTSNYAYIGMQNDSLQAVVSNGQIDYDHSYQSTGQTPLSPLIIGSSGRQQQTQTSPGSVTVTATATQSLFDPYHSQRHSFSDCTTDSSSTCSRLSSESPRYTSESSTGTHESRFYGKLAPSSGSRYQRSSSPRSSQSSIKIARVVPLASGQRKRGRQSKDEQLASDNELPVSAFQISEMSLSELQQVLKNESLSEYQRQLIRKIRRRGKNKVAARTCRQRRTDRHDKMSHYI
# [3] = target: T3, Mannose-6-phosphate isomerase (Homo sapiens, UniProt P34949); experiment: PMI enzyme inhibitors, confirmation, biochemical, fluorescence intensity (AID 1535)
# T3 sequence (P34949 whole entry): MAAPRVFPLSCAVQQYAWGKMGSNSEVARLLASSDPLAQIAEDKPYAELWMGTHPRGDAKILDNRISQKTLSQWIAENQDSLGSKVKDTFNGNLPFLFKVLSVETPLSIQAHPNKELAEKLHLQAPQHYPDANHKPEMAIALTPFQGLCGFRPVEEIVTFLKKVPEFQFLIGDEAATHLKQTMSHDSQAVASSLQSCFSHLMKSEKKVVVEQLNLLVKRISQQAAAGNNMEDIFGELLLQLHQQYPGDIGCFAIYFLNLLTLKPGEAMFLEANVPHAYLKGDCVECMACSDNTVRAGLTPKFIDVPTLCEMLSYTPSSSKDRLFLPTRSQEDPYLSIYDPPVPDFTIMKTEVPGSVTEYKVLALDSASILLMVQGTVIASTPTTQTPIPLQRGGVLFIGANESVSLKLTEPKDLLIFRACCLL
# HeLa = experiment: HeLa cell cytotoxicity, dose response, cytotoxicity control for MITF activator project, CellTiter-Glo luminescence, cherry-pick samples (AID 540259); assay type: functional, cell-based; conditions: Homo sapiens
# [4] = microbe, parasite or virus in culture; assay type: functional; conditions: Mycobacterium tuberculosis
# [5] = THP-1 cell cytotoxicity, dose response, cytotoxicity control for non-replicating M. tuberculosis project (AID 489025); assay type: functional
# [6] = Vero E6 cell cytotoxicity, dose response, cytotoxicity control for non-replicating M. tuberculosis project, secondary assay (AID 492998); assay type: functional, VeroE6; conditions: Vero C1008
# cells = assay type: functional
# H9c2 = experiment: cells; assay type: functional, cell-based; conditions: Rattus norvegicus, H9c2, Myocardium;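 further: confirmatory concentration-response retest of ultra-high-throughput screening hits for modulation of myocardial damage; cell death induced by hydrogen peroxide oxidative stress; compound pretreatment for 60 min then peroxide exposure for 2 h; potency is for protecting the cells against peroxide damage rather than for killing them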
# [7] = P. falciparum 3D7-ScDHODH growth inhibitors, dose response, SYBR Green, dry powder samples (AID 1159570); assay type: functional, cell-based;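 further: parasite growth measured after 72 hours of compound exposure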
# [8] = HepG2 cell cytotoxicity, dose response, cytotoxicity control, plate reader, dry powder samples (AID 1159569); assay type: functional, cell-based;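 further: inhibitor potency with signal falling toward the positive control level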
# [9] = P. falciparum Dd2 growth inhibitors, dose response, SYBR Green, cherry-picked samples (AID 1159567); assay type: functional, cell-based
# [10] = P. falciparum Dd2 growth inhibitors, dose response, SYBR Green, dry powder samples (AID 1159566); assay type: functional, cell-based;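 further: potency for growth inhibition with lower SYBR green DNA signal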
# [11] = HepG2 cell cytotoxicity, dose response, cytotoxicity control, cherry-picked samples (AID 1159577); assay type: functional, cell-based
# [12] = P. falciparum ATP4 D1247Y mutant growth inhibitors, dose response, NITD609-resistant line, SYBR Green, dry powder (AID 1159571); assay type: functional, cell-based;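 further: parasites synchronized at ring stage by sorbitol before testing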
smiles,measurement,setting,value
COc1ccc(C(=O)N(Cc2nc(-c3ccc(C)cc3)no2)C2CCCCC2)cc1OC,IC50,[1],10.8 µM (not active)
same,EC50,[2],8.02 µM (active)
O=C(N/N=C\c1ccccc1O)c1ccccc1O,AC50,Cytochrome P450 3A4,6.31 µM (inconclusive)
NC(=NOC(=O)c1cccc(Cl)c1)c1cccnc1,IC50,Prothrombin,> 50 µM (not active)
same,IC50,Protein skinhead-1,86.4 µM (inactive)
COc1ccccc1N1CCN(CC(O)COc2ccc3c(c2)OCO3)CC1 (configuration not stated),IC50,[1],> 50 µM (not active)
CCCC(=O)n1nc(-c2ccc(C)cc2)nc1NCc1ccco1,IC50,Prothrombin,11.1 µM (active)
COc1ccc(/N=c2\ssnc2Cl)cn1,IC50,[3],29.8 µM (active)
Cc1cc(/N=c2\ssnc2Cl)n[nH]1,IC50,[3],5.94 µM (active)
COC(=O)c1ccc2[nH]c(C3(O)CCCCC3)c(C)c2c1,AC50,HeLa,44.3 µM (active)
O=C(N/N=C/c1cccc2cccnc12)[C@H]1C[C@@H]1c1ccccc1,CC50,[4],> 40 µM (active)
same,CC50,[5],32.9 µM (active)
same,CC50,[6],> 20 µM (active)
same,IC50,cells,33.1 µM (active)
same,IC50,H9c2,11.2 µM (active)
COc1ccc2c3c(n(C)c2c1)[C@@H](CO)N(C(=O)CN(C)C)CC31CCN(Cc2cccnc2)CC1,AC50,[7],2.3 µM (active)
same,AC50,[8],64.4 µM (active)
same,AC50,[9],2.9 µM (active)
same,AC50,[10],2.61 µM (active)
same,AC50,[11],> 39 µM (inactive)
same,AC50,[12],4.01 µM (active)
Cc1ccc(O)c(/N=N\c2ccccc2)n1,AC50,Cytochrome P450 3A4,5.01 µM (inconclusive)
